In the supplement of paper PMC12137928:
Where a name gives a salt, the structure may show the parent alone.

Test system: HCT116
Details: 72 h
Summary of the method: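 IC50 and maximal efficacy were derived from four-parameter Hill curve fits. The underlying CellTiter-Glo luminescence was scaled so that vehicle equals 0% and positive control equals -100%, and was then pattern-corrected. HCT116 cells had been seeded in 1536-well plates at 250 per well.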

Row | IC50 cell viability (ICRF193 0 nM) [µM] | IC50 cell viability (ICRF193 200 nM) [µM] | SMILES
1 | > 45.8 | > 45.8 | Cc1cccc(C)c1NC(=O)C1CCCCN1C (configuration not stated) [MEPIVACAINE HYDROCHLORIDE]
2 | > 45.8 | > 45.8 | CS(=O)(=O)n1cc2c(n1)CN([C@H]1CO[C@H](c3cc(F)ccc3F)[C@@H](N)C1)C2 [MK-3102]
3 | > 45.8 | > 45.8 | CCCNS(=O)(=O)Nc1ncnc(OCCOc2ncc(Br)cn2)c1-c1ccc(Br)cc1 [Macitentan]
4 | > 45.8 | > 45.8 | NCc1ccc(S(N)(=O)=O)cc1 [Mafenide hydrochloride]
5 | > 45.8 | > 45.8 | O=C(O)/C=C\C(=O)O [Maleic acid]
6 | > 45.8 | > 45.8 | CC(C)OC(=O)C(C(=O)OC(C)C)=C1SC=CS1 [Malotilate]
7 | > 45.8 | > 45.8 | CN1CCN(c2c(F)cc3c(=O)c(C(=O)O)cn4c3c2OCN4C)CC1 [Marbofloxacin]
8 | > 45.8 | > 45.8 | C=C1/C(=C\C=C2/CCC[C@]3(C)[C@@H]([C@H](C)OCCC(C)(C)O)CC[C@@H]23)C[C@@H](O)C[C@@H]1O [Maxacalcitol-D6]
9 | > 45.8 | > 45.8 | CCN(CCCCOC(=O)c1ccc(OC)c(OC)c1)C(C)Cc1ccc(OC)cc1 (configuration not stated) [Mebeverine hydrochloride]
10 | > 45.8 | > 45.8 | C[N+](C)(C)C1CCC(CC2CCC([N+](C)(C)C)CC2)CC1 (configuration not stated) [Mebezonium Iodide]
11 | > 45.8 | > 45.8 | Cc1cc(C)c(NC(=O)CN(CC(=O)O)CC(=O)O)c(C)c1Br [Mebrofenin]
12 | > 45.8 | > 45.8 | CNC1(C)C2CCC(C2)C1(C)C (configuration not stated) [Mecamylamine]
13 | > 45.8 | > 45.8 | Cc1ccc(Cl)c(Nc2ccccc2C(=O)O)c1Cl [Meclofenamate sodium]
14 | > 45.8 | > 45.8 | CN(C)CCOC(=O)COc1ccc(Cl)cc1 [Meclofenoxate hydrochloride]
15 | > 45.8 | > 45.8 | O=P(O)(O)CP(=O)(O)O [Medronic acid]
16 | > 45.8 | > 45.8 | CC(=O)O[C@]1(C(C)=O)CC[C@H]2[C@@H]3C[C@H](C)C4=CC(=O)CC[C@]4(C)[C@H]3CC[C@@]21C [Medroxyprogesterone acetate]
17 | > 45.8 | > 45.8 | CC(=O)[C@H]1CC[C@H]2[C@@H]3C[C@H](C)C4=CC(=O)CC[C@]4(C)[C@H]3[C@@H](O)C[C@]12C [Medrysone]
18 | > 45.8 | > 45.8 | Cc1cccc(Nc2ccccc2C(=O)O)c1C [Mefenamic acid]
19 | > 45.8 | > 45.8 | CN(CC1(C)CCCO1)S(=O)(=O)c1ccc(Cl)c(S(N)(=O)=O)c1 (configuration not stated) [Mefruside]
20 | > 45.8 | > 45.8 | CC(=O)O[C@]1(C(C)=O)CC[C@H]2[C@@H]3C=C(C)C4=CC(=O)CC[C@]4(C)[C@H]3CC[C@@]21C [Megestrol acetate]
21 | > 45.8 | > 45.8 | CNC[C@H](O)[C@@H](O)[C@H](O)[C@H](O)CO [Meglumine]
22 | > 45.8 | > 45.8 | COc1ccc2[nH]cc(CCNC(C)=O)c2c1 [Melatonin]
23 | > 45.8 | > 45.8 | CCCCC/C=C/C/C=C/CCCCCCCC(=O)NC(C)c1ccccc1 (configuration not stated) [Melinamide]
24 | > 45.8 | > 45.8 | CC12CC3CC(C)(C1)CC(N)(C3)C2 [Memantine hydrochloride]

Row | IC50 cell viability (ICRF193 0 nM) [µM] | IC50 cell viability (ICRF193 200 nM) [µM] | SMILES
25 | > 45.8 | > 45.8 | CC1=CC(=O)c2ccccc2C1=O [Menadione]
26 | > 45.8 | > 45.8 | CC(C)=CCC/C(C)=C/CC/C(C)=C/CC/C(C)=C/CC/C(C)=C/CC1=C(C)C(=O)c2ccccc2C1=O [Menaquinone]
27 | > 45.8 | > 45.8 | Cc1ccccc1OCC(O)CO (configuration not stated) [Mephenesin]
28 | > 45.8 | > 45.8 | Cc1ccc2c(n1)Oc1ccc(C(C)C(=O)OCC(=O)N(C)C)cc1C2 (configuration not stated) [Mepranoprofen arbamel]
29 | > 45.8 | > 45.8 | C[C@H]1C[C@H]2[C@@H]3CCC4=CC(=O)C=C[C@]4(C)[C@H]3C(=O)C[C@]2(C)[C@@]1(O)C(=O)CO [Meprednisone]
30 | > 45.8 | > 45.8 | CCCNC(C)(C)COC(=O)c1ccccc1 [Meprylcaine hydrochloride]
31 | > 45.8 | > 45.8 | C[C@@H](O)[C@H]1C(=O)N2C(C(=O)O)=C(S[C@@H]3CN[C@H](C(=O)N(C)C)C3)[C@H](C)[C@H]12 [Meropenem]
32 | > 45.8 | > 45.8 | CN1CCCCC1CCN1c2ccccc2Sc2ccc([S+](C)[O-])cc21 (configuration not stated) [Mesoridazine]
33 | > 45.8 | > 45.8 | C#C[C@]1(O)CC[C@H]2[C@@H]3CCc4cc(OC)ccc4[C@H]3CC[C@@]21C [Mestranol]
34 | > 45.8 | > 45.8 | C[C@H](N)[C@H](O)c1cccc(O)c1 [Metaraminol bitartrate]
35 | > 45.8 | > 45.8 | Cc1cc(C)cc(OCC2CNC(=O)O2)c1 (configuration not stated) [Metaxalone]
36 | > 45.8 | > 45.8 | CN(C)C(=N)NC(=N)N [Metformin]
37 | > 45.8 | > 45.8 | CC(=O)OC(C)C[N+](C)(C)C (configuration not stated) [Methacholine chloride]
38 | > 45.8 | > 45.8 | C=C1c2cccc(O)c2C(=O)C2=C(O)[C@]3(O)C(=O)C(C(N)=O)=C(O)[C@@H](N(C)C)[C@@H]3[C@@H](O)[C@H]12 [Methacycline hydrochloride]
39 | > 45.8 | > 45.8 | CC[N+](C)(CC)CCOC(=O)C1c2ccccc2Oc2ccccc21 [Methantheline bromide]
40 | > 45.8 | > 45.8 | CN(C)CCN(Cc1cccs1)c1ccccn1 [Methapyrilene hydrochloride]
41 | > 45.8 | > 45.8 | CC(=O)/N=c1/sc(S(N)(=O)=O)nn1C [Methazolamide]
42 | > 45.8 | > 45.8 | C1N2CN3CN1CN(C2)C3 [Methenamine]
43 | > 45.8 | > 45.8 | COc1cccc(OC)c1C(=O)N[C@@H]1C(=O)N2[C@@H]1SC(C)(C)[C@@H]2C(=O)O [Methicillin sodium hydrate]
44 | > 45.8 | > 45.8 | Cn1ccnc1S [Methimazole]
45 | > 45.8 | > 45.8 | COc1ccccc1OCC(O)COC(N)=O (configuration not stated) [Methocarbamol]
46 | > 45.8 | > 45.8 | COc1c2occc2cc2ccc(=O)oc12 [Methoxsalen]
47 | > 45.8 | > 45.8 | COC(F)(F)C(Cl)Cl [Methoxyflurane]

Row | SMILES | IC50 cell viability (ICRF193 0 nM) [µM] | IC50 cell viability (ICRF193 200 nM) [µM]
48 | COC(=O)C(c1ccccc1)C1CCCCN1 (configuration not stated) [METHYLPHENIDATE HYDROCHLORIDE] | > 45.8 | > 45.8
49 | CC(C)(C)NCC(O)c1cc(Cl)c(N)c(C(F)(F)F)c1 (configuration not stated) [Mabuterol hydrochloride] | > 45.8 | > 45.8
50 | CCOC(=O)CC(SP(=S)(OC)OC)C(=O)OCC (configuration not stated) [Malathion] | > 45.8 | > 45.8
51 | CN1[C@@H]2CCC(C)(C)[C@H]1C[C@H](OC(=O)C(O)(c1cccs1)c1cccs1)C2 [Mazaticol] | > 45.8 | > 45.8
52 | CCC(C)C(C)(COC(N)=O)COC(N)=O (configuration not stated) [Mebutamate] | > 45.8 | > 45.8
53 | CC(Cc1ccccc1)NCCCCl (configuration not stated) [Mefenorex] | > 45.8 | > 45.8
54 | N[C@@H](Cc1ccc(N(CCCl)CCCl)cc1)C(=O)O [Melphalan] | > 45.8 | > 45.8
55 | C[N+]1(C)CCCC(OC(=O)C(O)(c2ccccc2)c2ccccc2)C1 (configuration not stated) [Mepenzolate bromide] | > 45.8 | > 45.8
56 | CNC(C)(C)Cc1ccccc1 [Mephentermine hemisulfate] | > 45.8 | > 45.8
57 | COC1(O[C@H]2CC[C@H]3[C@@H]4CC[C@H]5C[C@@H]6S[C@@H]6C[C@]5(C)[C@H]4CC[C@]23C)CCCC1 [Mepitiostane (Contains ~15% 3a,4a-Epithio isomer)] | > 45.8 | > 45.8
58 | CCC1(c2cccc(O)c2)CCCCN(C)C1 (configuration not stated) [Meptazinol hydrochloride] | > 45.8 | > 45.8
59 | O=C([O-])c1ccccc1-c1c2cc(Br)c(=O)cc-2oc2[c]([Hg+])c([O-])c(Br)cc12.[Na+].[Na+].[OH-] [Merbromin] | > 45.8 | > 45.8
60 | COC([CH2][Hg+])CNC(=O)c1ccccc1OCC(=O)O.[OH-] (configuration not stated) [Mersalyl acid] | > 45.8 | > 45.8
61 | CCC1(CC)C(=O)NC(=O)N(C)C1=O [Metharbital] | > 45.8 | > 45.8
62 | CC(=O)O[C@H]1CC[C@H]2[C@@H]3CC[C@H]4CC(=O)C=C(C)[C@]4(C)[C@H]3CC[C@]12C [Methenolone (acetate)] | > 45.8 | > 45.8
63 | CCCCCCC(=O)O[C@H]1CC[C@H]2[C@@H]3CC[C@H]4CC(=O)C=C(C)[C@]4(C)[C@H]3CC[C@]12C [Methenolone enanthate] | > 45.8 | > 45.8
64 | CC[C@@H](CO)NC(=O)[C@@H]1C=C2c3cccc4[nH]cc(c34)C[C@H]2N(C)C1 [Methergine] | > 45.8 | > 45.8
65 | COc1ccc(OC)c(C(O)C(C)N)c1 (configuration not stated) [Methoxamine hydrochloride] | > 45.8 | > 45.8
66 | CNC(C)Cc1ccccc1OC (configuration not stated) [Methoxyphenamine] | > 45.8 | > 45.8
